Results published in patent US20260335495A1, “SYNERGISTIC ACTIVITY OF NOVEL COMPOUNDS AGAINST PLANKTONIC AND BIOFILM CELLS OF CLINICALLY RELEVANT PATHOGENS” (priority 2021, published 2026).
Where a name gives a salt, the structure may show the parent alone.

Legend:
C. albicans ON47 = test: MIC and checkerboard (FICI), planktonic cells; assay type: cell-based
Experimental: (§1) The MIC was determined by the micro broth dilution method in 96-well plates. […] A 10 μL containing 1×10^5 bacterial cells or 2×10^3 fungal cells were added to each well. The inoculated plates were covered with a lid, sealed with Parafilm, and incubated for 24 h at 37 °C with slight rocking on a tilting platform shaker. After incubation, the optical density at 600 nm (OD 600) of the cultures in each well was measured using an xMark™ Microplate Absorbance Spectrophotometer (Bio-Rad). The MIC was defined as the lowest concentration of antimicrobial compound at which the culture OD600 values was similar to uninoculated control wells. MBCs and MFCs were determined by transferring 100 μL from each well with no apparent growth onto appropriate agar plates, followed by incubation for 24 h at 37 °C.
(§2) The concentrations of antimicrobials used were based on previously determined MIC values. […] Microtiter plates were incubated at 37 °C for 24 h, and the results were analyzed. Each test was performed in duplicate and included a growth control without the addition of any antimicrobials.

Candida albicans SK4b = test: MIC and checkerboard (FICI), planktonic cells; assay type: cell-based
Experimental: as §1, §2

E. coli SK2 = test: MIC and checkerboard (FICI), planktonic cells; assay type: cell-based
Experimental: as §1, §2

Escherichia coli ON29 = test: MIC and checkerboard (FICI), planktonic cells; assay type: cell-based
Experimental: as §1, §2

Proteus mirabilis ON153 = test: MIC and checkerboard (FICI), planktonic cells; assay type: cell-based
Experimental: as §1, §2

[1] = tested on: Pseudomonas aeruginosa SK1; test: MIC and checkerboard (FICI), planktonic cells; assay type: cell-based
Experimental: as §1, §2

S. epidermidis SK9 = test: MIC and checkerboard (FICI), planktonic cells; assay type: cell-based
Experimental: as §1, §2

Serratia marcescens SK2 = test: MIC and checkerboard (FICI), planktonic cells; assay type: cell-based
Experimental: as §1, §2

[2] = tested on: Staphylococcus aureus ON89; test: MIC and checkerboard (FICI), planktonic cells; assay type: cell-based
Experimental: as §1, §2

[3] = tested on: Staphylococcus epidermidis ON170; test: MIC and checkerboard (FICI), planktonic cells; assay type: cell-based
Experimental: as §1, §2

[4] = tested on: Stenotrophomonas maltophilia ON17; test: MIC and checkerboard (FICI), planktonic cells; assay type: cell-based
Experimental: as §1, §2

MRSA ON184 = test: MIC and checkerboard (FICI), planktonic cells; assay type: cell-based, methicillin-resistant S. aureus
Experimental: as §1, §2

12 test organisms = test: MBC/MFC and FMCI, planktonic cells, summary over strains; assay type: cell-based, bacterial and fungal organisms
Experimental: as §1, §2

[5] = tested on: preformed biofilms of test pathogens; test: MBEC and FBEC index, 48 h old biofilms, summary over strains; assay type: cell-based, bacterial and fungal strains; conditions: alone: 4% tetrasodium EDTA, 50% ethanol, 100 μg/mL chlorhexidine HCl, 24 hours
Experimental: The evaluation of the biofilm cultivation cell composition was evaluated using an MBEC Assay® biofilm inoculator, consisting of a polystyrene lid with 96 downward-protruding pegs and a corresponding base used to grow biofilms. A standardized inoculum was diluted in an appropriate biofilm growth medium to achieve a viable cell count of 1.5×10^6 CFU/mL of bacterial cells or 5×10^5 CFU/mL of fungal cells. Then, 150 μL of this inoculum was transferred into each appropriate well, and the peg lids were inserted into the microtiter plates. The plates were sealed with Parafilm and were incubated at optimum temperature for 48 h with slight rocking for bacteria and shaking at 200 rpm for fungal strains. After incubation, the peg lid was removed from the base and rinsed twice with sterile phosphate-buffered saline (PBS) for 2 min to remove loosely attached non-sessile cells. Before the antimicrobial challenge, the pegs in column 1 (n=8) were considered as the biofilm growth control; these pegs were removed from the lids, placed into 200 μL of recovery medium, and analyzed for starting biofilm cell numbers as described below. […] After the antimicrobial challenge, the pegs were rinsed twice with sterile PBS for 2 min and placed into a new 96-well plate containing 200 μL of recovery medium. The recovery plates were sealed with Parafilm, and biofilm cells were dislodged from the pegs by sonication for 30 min with a Branson 3510 bath sonicator. The biofilm cells in the recovery medium were serially diluted, and a drop dilution assay was performed to enumerate the viable cells.
In step (4), microtiter plates are incubated at 37 °C for 24 h. then (6), after incubation, the bacterial and fungal cells were dislodged from the pegs into the recovery medium described above.
Three 10-μL aliquots, for a total of 30 μL from each well of recovery medium, were spotted on MH agar plates and incubated for 24 hours at 37 °C. […] The FBEC determination is a modification of the FICI. […]

[6] = tested on: bacterial and fungal biofilms; test: Rapid eradication of 48-h-old biofilms within 2 h exposure; assay type: cell-based, bacterial and fungal strains; conditions: at the MBEC alone, 48-h-old biofilm
Experimental: This example comprises performing biofilm growth as described above. After biofilm formation, control pegs (n=6) were removed and analyzed to determine the starting biofilm cell numbers via the drop dilution method. The 48-h old biofilms on the pegs were exposed to different concentrations of test antimicrobials, dissolved in an appropriate growth medium, for 2 hours to evaluate their efficacy alone and in combination. […] Following treatment, pegs were washed twice with sterile PBS, and the biofilm cells were dislodged into recovery medium and enumerated as described above.

[7] = cited from earlier work
[8] = tested on: human erythrocytes and neutrophils; conditions: concentrations above 2%, in vitro; cited from earlier work
[9] = overuse; cited from earlier work
[10] = tested on: broad range of microbial species; conditions: even at high concentrations; cited from earlier work
S. aureus = conditions: cited from earlier work
biofilms = conditions: cited from earlier work

Compound: [H]/N=C(\N/C(=N/[H])NCCCCCCNC(=N)NC(=N)Nc1ccc(Cl)cc1)Nc1ccc(Cl)cc1 [CH, chlorhexidine HCl]
- MIC (C. albicans ON47; Candida albicans, ON47, 24 h): 1.6 µg/mL
- MIC in combination (C. albicans ON47; TE + CH in combination): 0.8 µg/mL
- MIC (Candida albicans SK4b; Candida albicans, SK4B, 24 h): 1.6 µg/mL
- MIC in combination (Candida albicans SK4b; TE + CH in combination): 0.8 µg/mL
- MIC (E. coli SK2; Escherichia coli, SK2, 24 h): 0.4 µg/mL
- MIC in combination (E. coli SK2; TE + CH in combination): 0.1 µg/mL
- MIC (Escherichia coli ON29; Escherichia coli, ON29, alone, 24 h, 37 °C, read-out: MIC): 0.4 µg/mL
- MIC in combination (Escherichia coli ON29; TE + CH in combination): 0.2 µg/mL
- MIC (Proteus mirabilis ON153; Proteus mirabilis, ON153, alone, 24 h, 37 °C, read-out: MIC): 50 µg/mL
- MIC in combination (Proteus mirabilis ON153; TE + CH in combination): 0.8 µg/mL
- MIC ([1]; Pseudomonas aeruginosa, SK1, 24 h): 1.6 µg/mL
- MIC in combination ([1]; TE + CH in combination): 0.8 µg/mL
- MIC (S. epidermidis SK9; Staphylococcus epidermidis, SK9, alone, 24 h, 37 °C, read-out: MIC): 0.1 µg/mL
- MIC in combination (S. epidermidis SK9; TE + CH in combination): 0.025 µg/mL
- MIC (Serratia marcescens SK2; Serratia marcescens, SK2, 24 h): 12.5 µg/mL
- MIC in combination (Serratia marcescens SK2; TE + CH in combination): 1.5 µg/mL
- MIC ([2]; Staphylococcus aureus, ON89, alone, 24 h, 37 °C, read-out: MIC): 0.1 µg/mL
- MIC in combination ([2]; TE + CH in combination): 0.1 µg/mL
- MIC ([3]; Staphylococcus epidermidis, ON170, alone, 24 h, 37 °C, read-out: MIC): 0.1 µg/mL
- MIC in combination ([3]; TE + CH in combination): 0.05 µg/mL
- MIC ([4]; Stenotrophomonas maltophilia, ON17, 24 h): 0.8 µg/mL
- MIC in combination ([4]; TE + CH in combination): 0.2 µg/mL
- MIC (MRSA ON184; Staphylococcus aureus, MRSA, alone, 24 h, 37 °C, read-out: MIC): 0.2 µg/mL
- MIC in combination (MRSA ON184; TE + CH in combination): 0.2 µg/mL
- microbicidal activity (12 test organisms): broad-spectrum microbicidal activity
- eradication of all established biofilms [5]: able to eradicate all established biofilms
- biofilm eradication [6]: failed to eradicate the preformed biofilms

Compound: [H]/N=C(\N/C(=N/[H])NCCCCCCNC(=N)NC(=N)Nc1ccc(Cl)cc1)Nc1ccc(Cl)cc1 [Chlorhexidine, 1,6-bis(4-chloro-phenylbiguanido)hexane]
- mammalian toxicity ([7]; in vivo): low mammalian toxicity
- chemical burns ([7]; infants): cause chemical burns in infants
- allergenicity ([7]; perioperative and clinical care settings): significant allergen
- effect on human erythrocytes and neutrophils [8]: fewer human erythrocytes and neutrophils in vitro
- reduced susceptibility and cross-resistance [9]: reduced susceptibility from its overuse and a cross-resistance to colistin

Compound: O=C(O)CN(CCN(CC(=O)O)CC(=O)O)CC(=O)O [disodium EDTA]
- antimicrobial activity alone [10]: not a potent antimicrobial agent (i.e., does not kill cells)

Compound: Heparin
- colonization of catheter surfaces (S. aureus): promote the colonization of S. aureus on catheter surfaces
- inhibition or eradication of biofilms (biofilms): neither of these agents has the potential to inhibit or eradicate biofilms
